Reference: ChEMBL document CHEMBL1158320, “Antiandrogenic natural Diels--Alder-type adducts from Brosimum rubescens” (J Nat Prod, 1997)
Active and inactive are the calls of the source. No cut-off for these calls is given here.

Key:
Settings in all cases: Prostate gland
[1] = biological target: T1, Androgen receptor (Rattus norvegicus) (UniProt P15207); assay: Displacement of [3H]dihydrotestosterone from androgen receptor in Wistar rat ventral prostate at 200 ug/mL by liquid scintillation counting
T1 sequence (whole entry): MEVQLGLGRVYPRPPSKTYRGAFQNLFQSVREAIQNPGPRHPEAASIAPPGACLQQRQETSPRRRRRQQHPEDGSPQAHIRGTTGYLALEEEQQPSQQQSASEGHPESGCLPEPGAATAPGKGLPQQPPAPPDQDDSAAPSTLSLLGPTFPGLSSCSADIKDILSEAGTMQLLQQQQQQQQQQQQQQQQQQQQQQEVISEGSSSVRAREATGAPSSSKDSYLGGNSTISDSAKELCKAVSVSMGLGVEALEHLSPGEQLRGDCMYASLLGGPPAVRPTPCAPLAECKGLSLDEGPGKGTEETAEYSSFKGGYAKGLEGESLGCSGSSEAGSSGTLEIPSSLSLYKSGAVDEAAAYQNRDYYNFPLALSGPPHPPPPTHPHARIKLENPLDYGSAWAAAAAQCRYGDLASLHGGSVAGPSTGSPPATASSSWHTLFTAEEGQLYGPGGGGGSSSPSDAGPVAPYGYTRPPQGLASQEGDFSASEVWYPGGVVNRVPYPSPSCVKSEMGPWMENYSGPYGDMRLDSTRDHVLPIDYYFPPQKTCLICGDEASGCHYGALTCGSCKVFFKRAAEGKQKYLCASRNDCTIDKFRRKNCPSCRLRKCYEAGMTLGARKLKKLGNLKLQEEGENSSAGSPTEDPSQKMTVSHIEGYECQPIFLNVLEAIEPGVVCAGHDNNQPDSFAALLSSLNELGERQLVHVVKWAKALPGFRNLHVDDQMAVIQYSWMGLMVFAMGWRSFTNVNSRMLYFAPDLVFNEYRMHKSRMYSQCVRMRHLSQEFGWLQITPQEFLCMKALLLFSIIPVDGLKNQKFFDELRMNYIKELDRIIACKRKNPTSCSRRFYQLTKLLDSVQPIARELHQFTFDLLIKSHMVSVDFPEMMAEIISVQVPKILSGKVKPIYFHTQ

Rattus norvegicus [2] = organism: Rattus norvegicus; assay: Inhibition of 5alpha reductase in Wistar rat ventral prostate at 50 ug/mL by radiochromatography; format: tissue-based
Rattus norvegicus [3] = organism: Rattus norvegicus; assay: Inhibition of 5alpha reductase in Wistar rat ventral prostate at 200 ug/mL by radiochromatography; format: tissue-based
[4] = biological target: T1, Androgen receptor (Rattus norvegicus); assay: Displacement of [3H]dihydrotestosterone from androgen receptor in Wistar rat ventral prostate at 100 ug/mL by liquid scintillation counting; format: tissue-based
Rattus norvegicus [5] = organism: Rattus norvegicus; assay: Inhibition of 5alpha reductase in Wistar rat ventral prostate at 100 ug/mL by radiochromatography; format: tissue-based
[6] = biological target: T1, Androgen receptor (Rattus norvegicus); assay: Displacement of [3H]dihydrotestosterone from androgen receptor in Wistar rat ventral prostate at 50 ug/mL by liquid scintillation counting; format: tissue-based

Which inhibition [1] does the source give for COc1cc(O)ccc1[C@@H]1CC(C)=C[C@H]2c3cc4ccc(=O)oc4cc3O[C@H](c3ccc(O)cc3)[C@H]21 here?
Its inhibition is 61.5%.

And the inhibition (Rattus norvegicus [2])?
Its inhibition is 3.4%.

What about the inhibition (Rattus norvegicus [3]) of the same compound?
Its inhibition is 69.2%.

And the inhibition [4]?
The inhibition was 57.5%.

What about the inhibition (Rattus norvegicus [5]) of the same compound?
Its inhibition is 44.1%.

What about the inhibition [6] of the same compound?
Its inhibition is 56.5%.

COc1cc(O)ccc1[C@@H]1CC(C)=C[C@H]2c3cc4ccc(=O)oc4cc3O[C@H](c3ccc(O)c(O)c3)[C@H]21 was tested. Which inhibition (Rattus norvegicus [2]) did it give?
Its inhibition is 0.2%.

What about the inhibition (Rattus norvegicus [3]) of the same compound?
Its inhibition is 19.8%.

And the inhibition [4]?
Its inhibition is -8.6%.

And the inhibition (Rattus norvegicus [5])?
The inhibition was 8.4%.

How did the inhibition [1] turn out when COc1cc(O)ccc1[C@H]1Oc2cc3oc(=O)ccc3cc2[C@@H]2C=C(C)C[C@@H](c3ccc(O)cc3OC)[C@H]12 was run?
Its inhibition is 62%.

What about the inhibition (Rattus norvegicus [2]) of the same compound?
The inhibition was 8.6%.

What about the inhibition (Rattus norvegicus [3]) of the same compound?
The inhibition was 72.3%.

What about the inhibition [4] of the same compound?
The inhibition was 70.9%.

And the inhibition (Rattus norvegicus [5])?
The inhibition was 49.9%.

What about the inhibition [6] of the same compound?
The inhibition was 60.3%.

Which Activity (Rattus norvegicus [2]) does the source give for CC[C@H]1C[C@H]2[C@@H]3CCC4=CC(=O)CC[C@@H]4[C@H]3CC[C@]2(C)[C@H]1O here?
Its Activity is “Active”.

Which inhibition [1] does the source give for COc1cc(O)ccc1[C@H]1Oc2cc3oc(=O)ccc3cc2[C@@H]2C=C(C)C[C@@H](c3ccc(O)cc3)[C@H]12 here?
The inhibition was 78.6%.

What about the inhibition (Rattus norvegicus [2]) of the same compound?
The inhibition was 5.4%.

What about the inhibition (Rattus norvegicus [3]) of the same compound?
The inhibition was 59.2%.

And the inhibition [4]?
Its inhibition is 73.3%.

What about the inhibition (Rattus norvegicus [5]) of the same compound?
Its inhibition is 28.8%.

And the inhibition [6]?
Its inhibition is 62.5%.

How did the inhibition (Rattus norvegicus [2]) turn out when COc1cc(O)ccc1[C@H]1Oc2cc3oc(=O)ccc3cc2[C@@H]2C=C(C)C[C@@H](c3ccc(O)c(O)c3)[C@H]12 was run?
Its inhibition is 0.3%.

What about the inhibition (Rattus norvegicus [3]) of the same compound?
The inhibition was 5.2%.

And the inhibition (Rattus norvegicus [5])?
Its inhibition is 4.8%.
